From patent US3966747A, “9-Hydroxy-6,7-benzomorphans” (Bristol-Myers Company, priority 1974, dated 1976)
Like-named read-outs stand apart in the source and are kept apart here.

Tests used:
[1] = system: Straub Tail induced by oxymorphone; test: Antagonist activity: antagonism of Straub Tail induced by oxymorphone; type: in vivo, mice; details: oxymorphone 2 mg./kg. sc., as free base; for ED50: Mus musculus
Experimental: (§1) . The figures reported are the number of milligrams/ kilogram of body weight of compound that produced an agonist or antagonist effect in 50% of the mice and rats so tested (ED50).
^2 Antagonism of Straub Tail induced by oxymorphone (2 mg./kg. sc.) i
(§2) ^6 All values are reported in terms of the free base even though
(§3) administered as an acid addition salt.

[2] = system: righting reflex loss induced by oxymorphone; test: animal or person; type: in vivo, rats; details: for ED50: Rattus norvegicus
[3] = system: analgesic effect induced by morphine; test: animal or person; type: in vivo, Rat; details: for ED50: Rattus norvegicus
Text: as §1
mg./kg. sc.) as measured by the rat tail flick procedure (Harris, L. S.
and Pierson, A. K., J. Pharmacol. & Expt. Therap., 143, 141; 1964).
as §2, §3

[4] = system: phenylquinone induced writhing; test: Agonist activity: mouse phenylquinone writhing; type: in vivo; details: for ED50: Mus musculus; for subcutaneous analgesic activity: in words
Experimental: (§4) In vivo testing was conducted on the compounds designated herein as dl-XVIc, l-XVIc tartrate, d-XVIc tartrate, dl-XVIe, dl-XVId and dl-XVIb to determine their agonist and/or antagonist properties. The figures reported are the number of milligrams/ kilogram of body weight of compound that produced an agonist or antagonist effect in 50% of the mice and rats so tested (ED50).
^1 A 50 percent reduction in number of phenylquinone induced writhing
(Siegmund, E. A. et al., Proc. Soc. Biol. & Med. 95, 729; 1957).
as §2, §3

[5] = In vivo testing for agonist and/or antagonist properties (overall statement); set-up: species or system mice and rats; details: in words
Experimental: as §4

[6] = PO, read-out: ED50, Antagonist Activity, Oxymorphone Straub Tail, PO
[7] = SC, read-out: ED50, Antagonist Activity, Oxymorphone Straub Tail, SC
[8] = PO, oxymorphone 1.5 mg./kg. sc., as free base, read-out: ED50, Antagonist Activity, Oxymorphone Narcosis, PO
[9] = SC, oxymorphone 1.5 mg./kg. sc., as free base, read-out: ED50, Antagonist Activity, Oxymorphone Narcosis, SC
[10] = PO, morphine 15 mg./kg. sc., as free base, read-out: ED50, Antagonist Activity, Morphine Antagonism Rat Tail Flick, PO
[11] = SC, morphine 15 mg./kg. sc., as free base, read-out: ED50, Antagonist Activity, Morphine Antagonism Rat Tail Flick, SC
[12] = SC, 50 percent reduction in number of writhings, as free base
[13] = PO, 50 percent reduction in number of writhings, as free base, read-out: ED50, Agonist Activity, Mouse Phenylquinone Writhing, PO
[14] = SC, 50 percent reduction in number of writhings, as free base, read-out: ED50, Agonist Activity, Mouse Phenylquinone Writhing, SC

Compound	ED50 [1, 6]	ED50 [1, 7]	ED50 [2, 8]	ED50 [2, 9]	ED50 [3, 10]	ED50 [3, 11]	ED50 [4, 14]	other results
C=CCN1CC[C@]23CCCC[C@H]2[C@H]1Cc1ccc(O)cc13 [Levallorphan]	46 mg/kg	0.29 mg/kg	5.4 mg/kg	0.32 mg/kg	12.6 mg/kg	0.086 mg/kg		
l- 2',9β-Dihydroxy-9α-methyl-5-allyl-2-cyclobutyl-6,7 -benzomorphan tartrate [l-XVIc]								ED50, Agonist Activity, Mouse Phenylquinone Writhing, PO ([4]; PO, 50 percent reduction in number of writhings, as free base): 8 mg/kg; ED50, Agonist Activity, Mouse Phenylquinone Writhing, SC [4, 12]: 0.055 mg/kg; ED50, Antagonist Activity, Oxymorphone Straub Tail, SC ([1]; SC): 0.43 mg/kg; ED50, Antagonist Activity, Oxymorphone Narcosis, SC ([2]; rat, in vivo, sc): 0.05 mg/kg; ED50, Antagonist Activity, Morphine Antagonism Rat Tail Flick, PO ([3]; rat, in vivo, po): 14.1 mg/kg; ED50, Antagonist Activity, Morphine Antagonism Rat Tail Flick, SC ([3]; rat, in vivo, sc): 0.08 mg/kg; agonist and antagonist activity upon parenteral administration [5]: potent agonist and antagonist activity
CC(C)=CCN1CCC2(C)c3cc(O)ccc3CC1C2C (stereo not drawn) [Pentazocine]	187 mg/kg	12 mg/kg	90 mg/kg		82.2 mg/kg		4.9 mg/kg	ED50 [4, 13]: 36 mg/kg
C#CCN1CC[C@@]2(CC=C)c3cc(O)ccc3C[C@@H]1[C@@]2(C)O (relative stereo) [dl-XVId, 2',9β-Dihydroxy-2-propargyl-5-allyl-9α-methyl-6,7-benzomorphan]		1.41 mg/kg				0.14 mg/kg	> 40 mg/kg	subcutaneous analgesic activity [4]: weak subcutaneous analgesic activity; parenteral antagonist activity [5]: relatively potent parenteral antagonists
CCC[C@]12CCN(CC3CC3)[C@H](Cc3ccc(O)cc31)[C@@]2(C)O (relative stereo) [dl-XVIe, 2',9β-Dihydroxy-2-cyclopropylmethyl-5-propyl-9α-methyl-6,7benzomorphan]		0.11 mg/kg		0.08 mg/kg	6 mg/kg	0.03 mg/kg	> 40 mg/kg	subcutaneous analgesic activity [4]: weak subcutaneous analgesic activity; parenteral antagonist activity [5]: relatively potent parenteral antagonists
C=CCC12CCN(CC3CCC3)C(Cc3ccc(O)cc31)C2(C)O.O=C(O)C(O)C(O)C(=O)O (stereo not drawn) [d-XVIc, d-2',9β-Dihydroxy-9α-methyl-5-allyl-2-cyclobutylmethyl-6,7-benzomorphan tartrate]								ED50, Agonist Activity, Mouse Phenylquinone Writhing, SC [4, 12]: > 40 mg/kg; ED50, Antagonist Activity, Oxymorphone Straub Tail, SC ([1]; SC): ~ 40 mg./kg.
C[C@H]1[C@H]2Cc3ccc(O)cc3[C@]1(C)CCN2CC1CC1 [Cyclazocine]	24 mg/kg	0.81 mg/kg	2.7 mg/kg	0.12 mg/kg	3.7 mg/kg	0.04 mg/kg	0.047 mg/kg	ED50 [4, 13]: 4 mg/kg
C=CC[C@]12CCN(CC3CC3)[C@H](Cc3ccc(O)cc31)[C@@]2(C)O (relative stereo) [dl-XVIb, 2',9β-Dihydroxy-2-cyclopropylmethyl-5-allyl-9α-methyl-6,7-benzomorphan]	16 mg/kg	0.12 mg/kg				0.018 mg/kg	> 40 mg/kg	subcutaneous analgesic activity [4]: weak subcutaneous analgesic activity; parenteral antagonist activity [5]: relatively potent parenteral antagonists
C=CCN1CC[C@]23c4c5ccc(O)c4O[C@H]2C(=O)CC[C@@]3(O)[C@H]1C5 [Naloxone]	13.1 mg/kg	0.17 mg/kg					40 mg/kg	ED50 ([2]; po, read-out: ED50, Antagonist Activity, Oxymorphone Narcosis, PO): 0.95 mg/kg; ED50 ([2]; sc, read-out: ED50, Antagonist Activity, Oxymorphone Narcosis, SC): 0.02 mg/kg; ED50 ([3]; po, read-out: ED50, Antagonist Activity, Morphine Antagonism Rat Tail Flick, PO): 2.7 mg/kg; ED50 ([3]; sc, read-out: ED50, Antagonist Activity, Morphine Antagonism Rat Tail Flick, SC): 0.01 mg/kg
C=CC[C@]12CCN(CC3CCC3)[C@H](Cc3ccc(O)cc31)[C@@]2(C)O (relative stereo) [dl-XVIc, 2',9β-Dihydroxy-2-cyclobutylmethyl-5-allyl-9α-methyl-6,7-benzomorphan]		0.72 mg/kg		0.3 mg/kg		0.42 mg/kg	0.23 mg/kg	agonist and antagonist activity upon parenteral administration [5]: potent agonist and antagonist activity
C=CCN1CC[C@]23c4c5ccc(O)c4O[C@H]2[C@@H](O)C=C[C@H]3[C@H]1C5 [Nalorphine]	> 64 mg/kg		5.4 mg/kg	0.58 mg/kg	22.1 mg/kg	0.38 mg/kg	0.77 mg/kg	ED50 [4, 13]: 15 mg/kg
l-2', 9β-Dihydroxy-9α-methyl-5-propyl-2-cyclobutyl-6,7 -benzomorphan HCl [l-XVIr]								ED50, Agonist Activity, Mouse Phenylquinone Writhing, SC [4, 12]: 0.18 mg/kg; ED50, Antagonist Activity, Oxymorphone Straub Tail, SC ([1]; SC): 1.17 mg/kg; ED50, Antagonist Activity, Morphine Antagonism Rat Tail Flick, SC ([3]; SC, morphine 15 mg./kg. sc., as free base): 0.10 mg/kg
